Test results taken from ChEMBL document CHEMBL3588860, “Synthesis and antiproliferative activity of some novel benzo-fused imidazo[1,8]naphthyridinones” (Bioorg Med Chem Lett, 2015).

What was measured:
[1] = test system: HCT-116; assay: Antiproliferative activity against human HCT116 cells after 72 hrs by MTT assay; assay type: functional, cell-based; conditions: HCT-116, 72 h
[2] = test system: HeLa; assay: Antiproliferative activity against human HeLa cells after 72 hrs by MTT assay; assay type: functional, cell-based
[3] = Antiproliferative activity against human FM3 cells after 72 hrs by MTT assay; assay type: functional, cell-based; conditions: FM3, 72 h
[4] = test system: Ishikawa; assay: Antiproliferative activity against human Ishikawa cells after 72 hrs by MTT assay; assay type: functional, cell-based
[5] = test system: Daudi; assay: Antiproliferative activity against human Daudi cells after 72 hrs by MTT assay; assay type: functional, cell-based
[6] = Antiproliferative activity against human MES-SA cells after 72 hrs by MTT assay; assay type: functional, cell-based
[7] = Antiproliferative activity against human MES-SA/Dx5 cells after 72 hrs by MTT assay; assay type: functional, cell-based; conditions: MES-SA/Dx5, 72 h
[8] = test system: MES-SA; assay: Ratio of IC50 for human MES-SA/Dx5 cells to IC50 for human MES-SA cells; assay type: functional

Structure (SMILES) | IC50 [1] [µM] | IC50 [2] [µM] | IC50 [5] [µM] | IC50 [3] [µM] | IC50 [4] [µM] | IC50 [6] [µM] | IC50 [7] [µM] | Ratio IC50 [8]
CC(C)n1cnc2cc3c(=O)c4ccccc4n(CCO)c3nc21 | 40.4 | 13.2 | 22.1 | 45.7 | 66.6 | 34.6 | 32.6 | 0.94
O=c1c2ccccc2[nH]c2nc3c(cc12)ncn3-c1ccccc1 | 73.1 | 27.6 | 31.3 | 51.1 | 50 | 47.4 | 34.4 | 0.73
CC(C)n1cnc2cc3c(=O)c4ccccc4[nH]c3nc21 | 37.4 | 29.7 | 34.7 | 66.7 | 62.5 | 37.6 | 46 | 1.23
O=c1c2ccccc2[nH]c2nc3c(cc12)ncn3C1CCCC1 | 42.4 | 21.4 | 15.3 | 30.1 | 60.8 | 20 | 17.2 | 0.86
O=C1c2c(O)ccc(O)c2C(=O)c2c(NCCNCCO)ccc(NCCNCCO)c21 [MITOXANTRONE] | 0.025 | 0.044 | 0.005 | 0.013 | 0.01 | 0.006 | 0.073 | 12.17
O=c1c2ccccc2n(CCO)c2nc3c(cc12)ncn3C1CCCC1 | 48.7 | 23.4 | 19 | 66.4 | 66.4 | 22.9 | 22.2 | 0.97

The remaining compounds from weak to strong by IC50 [1], led by results:

IC50 [1] [µM] | IC50 [2] [µM] | IC50 [5] [µM] | Structure (SMILES) | IC50 [3] [µM] | IC50 [4] [µM] | IC50 [6] [µM] | IC50 [7] [µM] | Ratio IC50 [8]
32.9 | 15.3 | 20.5 | O=c1c2ccccc2n(CCO)c2nc3c(cc12)ncn3-c1ccccc1 | 74.8 | 101 | 51.7 | 47.9 | 0.93
30.4 | 28.9 | 18.9 | CN(C)CCn1c2ccccc2c(=O)c2cc3ncn(C4CCCC4)c3nc21 | 42.4 | 39.1 | 32.8 | 25 | 0.76
27.9 | 23.3 | 33 | CN(C)CCn1c2ccccc2c(=O)c2cc3ncn(-c4ccccc4)c3nc21 | 29.8 | 43.6 | 47.3 | 41.7 | 0.88
24.5 | 21.6 | 18 | CCN(CC)CCn1c2ccccc2c(=O)c2cc3ncn(C(C)C)c3nc21 | 50.6 | 63.3 | 25.7 | 23.1 | 0.9
12.9 | 7.27 | 4.93 | CCN(CC)CCn1c2ccccc2c(=O)c2cc3ncn(-c4ccccc4)c3nc21 | 4.83 | 11.3 | 5.2 | 10.4 | 1.99
12.4 | 9.32 | 12.9 | CC(C)n1cnc2cc3c(=O)c4ccccc4n(CCN(C)C)c3nc21 | 17 | 39.4 | 22 | 16.1 | 0.73
8.2 | 11.7 | 10.6 | CCN(CC)CCn1c2ccccc2c(=O)c2cc3ncn(C4CCCC4)c3nc21 | 28 | 28.6 | 10.6 | 15.5 | 1.46
0.18 | 0.337 | 0.127 | COc1cccc2c1C(=O)c1c(O)c3c(c(O)c1C2=O)C[C@@](O)(C(=O)CO)C[C@@H]3O[C@H]1C[C@H](N)[C@H](O)[C@H](C)O1 [DOXORUBICIN] | 0.123 | 0.1 | 0.035 | 2.81 | 80.2
